According to ChEMBL document CHEMBL5050844 (2019):

Columns and labels:
[1] = target: E3 ubiquitin-protein ligase CBL-B (Homo sapiens, UniProt Q13191); assay: Inhibition of N-terminal Avi-tagged human CBL-B (36 to 427 residues) incubated with 60 nM Src kinase for 1.5 hrs followed by incubation with fluorescently labeled UbcH5B-Ub for 1 hr and measured by TR-FRET assay; assay type: single protein
[2] = Induction of anti-CD3/CD28 antibodies-stimulated human T cell activation at 1 uM assessed fold increase in IL-2 secretion measured by ELISA assay; assay type: functional, T cell line
[3] = Induction of anti-CD3/CD28 antibodies-stimulated human T cell activation at 0.3 uM assessed fold increase in IL-2 secretion measured by ELISA assay; assay type: functional, T cell line
[4] = Induction of anti-CD3 antibodies-stimulated human T cell activation at 1 uM assessed fold increase in IL-2 secretion measured by ELISA assay; assay type: functional, T cell line; note: reference of the scale not given here
[5] = Induction of anti-CD3/CD28 antibodies-stimulated human T cell activation at 1 uM assessed fold increase in CD25 expression measured by ELISA assay; assay type: functional, T cell line
[6] = Induction of anti-CD3/CD28 antibodies-stimulated human T cell activation at 0.3 uM assessed fold increase in CD25 expression measured by ELISA assay; assay type: functional, T cell line
[7] = Induction of anti-CD3 antibodies-stimulated human T cell activation at 1 uM assessed fold increase in CD25 expression measured by ELISA assay; assay type: functional, T cell line; note: reference of the scale not given here

Chain of E3 ubiquitin-protein ligase CBL-B (Q13191 whole entry, the tested form may be a part): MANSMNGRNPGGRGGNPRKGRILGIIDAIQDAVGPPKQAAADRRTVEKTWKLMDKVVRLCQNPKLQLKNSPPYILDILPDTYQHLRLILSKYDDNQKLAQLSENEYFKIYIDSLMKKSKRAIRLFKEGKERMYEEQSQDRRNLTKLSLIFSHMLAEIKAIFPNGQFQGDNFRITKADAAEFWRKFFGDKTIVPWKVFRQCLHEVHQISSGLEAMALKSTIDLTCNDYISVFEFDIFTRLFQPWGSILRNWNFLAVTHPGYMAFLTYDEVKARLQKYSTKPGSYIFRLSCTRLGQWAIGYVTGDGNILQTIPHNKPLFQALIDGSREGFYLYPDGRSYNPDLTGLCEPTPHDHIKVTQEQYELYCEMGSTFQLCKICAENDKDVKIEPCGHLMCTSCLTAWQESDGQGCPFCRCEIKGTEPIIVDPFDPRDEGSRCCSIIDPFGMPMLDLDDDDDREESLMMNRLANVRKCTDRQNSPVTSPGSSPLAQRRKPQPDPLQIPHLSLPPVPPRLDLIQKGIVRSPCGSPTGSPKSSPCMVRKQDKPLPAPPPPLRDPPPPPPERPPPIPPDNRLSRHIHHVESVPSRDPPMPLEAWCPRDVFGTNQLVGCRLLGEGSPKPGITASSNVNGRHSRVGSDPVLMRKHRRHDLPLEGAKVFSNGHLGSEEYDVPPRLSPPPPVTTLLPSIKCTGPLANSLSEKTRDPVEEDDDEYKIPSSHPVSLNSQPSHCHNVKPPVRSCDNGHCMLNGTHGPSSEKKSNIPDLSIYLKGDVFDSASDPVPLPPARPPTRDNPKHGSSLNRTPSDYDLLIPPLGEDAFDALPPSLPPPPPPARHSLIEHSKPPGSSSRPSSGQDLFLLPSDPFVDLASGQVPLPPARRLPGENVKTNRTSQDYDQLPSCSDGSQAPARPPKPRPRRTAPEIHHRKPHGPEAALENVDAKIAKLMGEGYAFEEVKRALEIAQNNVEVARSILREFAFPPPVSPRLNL

SMILES | IC50 [1] | fold change (FC) [2] | fold change (FC) [3] | fold change (FC) [4] | fold change (FC) [5] | fold change (FC) [6] | fold change (FC) [7]
Cn1cnnc1CC1(c2cccc(N3Cc4c(cc(CN5Cc6ccc(Cl)cc6C5)cc4C(F)(F)F)C3=O)c2)COC1 | < 100 nM | – | – | – | – | – | –
Cn1cnnc1CC1(c2cccc(N3Cc4c(cc(CN5CCOC(CF)C5)cc4C(F)(F)F)C3=O)c2)COC1 (centres undefined) | < 100 nM | – | – | – | – | – | –
Cc1cn(C)c(SC(C)c2ccnc(NC(=O)c3ccc4ccccc4n3)c2)n1 (centres undefined) | > 10000 nM | – | – | – | – | – | –
CN(c1cc2c(c(C(F)(F)F)c1)CN(c1cccc([C@@](C)(F)C(F)(F)c3nncn3C)c1)C2=O)[C@@H]1CNC[C@H]1F | < 100 nM | – | – | – | – | – | –
Cc1cc(C(=O)Nc2cccc(C3(Cc4nncn4C(F)F)COC3)c2)nc(C2CC2)n1 | < 100 nM | – | – | – | – | – | –
Cn1cnnc1CC1(c2cccc(N3Cc4c(cc(CN5CC[C@@H]6NCCO[C@@H]6C5)cc4C(F)(F)F)C3=O)c2)COC1 (relative stereo) | < 100 nM | – | – | – | – | – | –
Cc1nnnn1CC(C)c1cccc(NC(=O)c2cccc(C(F)(F)F)n2)c1 (centres undefined) | > 10000 nM | – | – | – | – | – | –
Cn1cnnc1CC1(c2cccc(N3Cc4c(cc(CN5CCOC(CCF)C5)cc4C(F)(F)F)C3=O)c2)COC1 (centres undefined) | < 100 nM | – | – | – | – | – | –
Cn1cnnc1CC1(c2cccc(N3Cc4c(cc(CN5CC[C@H](F)[C@@H](F)C5)cc4C(F)(F)F)C3=O)c2)COC1 | < 100 nM | – | – | – | – | – | –
Cn1cnnc1CC1(c2cccc(N3Cc4c(cc(CN5Cc6cccc(Cl)c6C5)cc4C(F)(F)F)C3=O)c2)COC1 | < 100 nM | – | – | – | – | – | –
Cn1cnnc1CC1(c2cccc(N3Cc4c(cc(CN5CCOC(C6CCC6)C5)cc4C(F)(F)F)C3=O)c2)COC1 (centres undefined) | < 100 nM | – | – | – | – | – | –
Cn1cnnc1CC1(c2cccc(N3Cc4c(cc(C5CCCOC5)cc4C(F)(F)F)C3=O)c2)COC1 (centres undefined) | < 100 nM | – | – | – | – | – | –
CC1=C(c2cc3c(c(C(F)(F)F)c2)CN(c2cccc(C4(Cc5nncn5C)COC4)c2)C3=O)CCO1 | < 100 nM | – | – | – | – | – | –
Cc1cc(C(=O)Nc2cccc(C3(Cc4[nH]ncc4C)COC3)c2)nc(C2CC2)n1 | < 100 nM | – | – | – | – | – | –
Cn1cnnc1CC1(c2cccc(N3Cc4c(cc(CN5CCc6cccnc6C5)cc4C(F)(F)F)C3=O)c2)COC1 | < 100 nM | – | – | – | – | – | –
CN(c1cc2c(c(C(F)(F)F)c1)CN(c1cccc([C@@](C)(F)C(F)(F)c3nncn3C)c1)C2=O)[C@H]1CNC[C@@H]1F | < 100 nM | – | – | – | – | – | –
Cn1cnnc1CC1(c2cccc(N3Cc4c(cc(CN5CC[C@@H](F)[C@H](F)C5)cc4C(F)(F)F)C3=O)c2)COC1 | < 100 nM | – | – | – | – | – | –

SMILES | IC50 [1] | fold change (FC) [2] | fold change (FC) [3] | fold change (FC) [4] | fold change (FC) [5] | fold change (FC) [6] | fold change (FC) [7]
C[C@H](Sc1nncn1C)c1cccc(NC(=O)c2cccc(N(C)C)c2)c1 | > 10000 nM | – | – | – | – | – | –
Cn1cnnc1CC1(c2cccc(N3Cc4c(cc(CN5CCOC6(CC6)C5)cc4C(F)(F)F)C3=O)c2)COC1 | < 100 nM | – | – | – | – | – | –
CC(c1cc(C(=O)Nc2cccc(C3(Cc4nncn4C)COC3)c2)nc(C2CC2)n1)N1CCC2(CC2)C1 (single isomer, unassigned; 592b) | < 100 nM | – | – | – | – | – | –
C[C@H](Sc1nncn1C)c1cccc(NC(=O)c2cc(C(=O)N3CCC[C@H]3C)ccn2)c1 | > 10000 nM | – | – | – | – | – | –
Cn1cnnc1CC1(c2cccc(N3Cc4c(cc(CN5CCN6C(=O)CCC6C5)cc4C(F)(F)F)C3=O)c2)COC1 (centres undefined) | < 100 nM | – | – | – | – | – | –
Cn1cnnc1CC1(c2cccc(N3Cc4c(cc(CN5CCOC6(CCOC6)C5)cc4C(F)(F)F)C3=O)c2)COC1 (centres undefined) | < 100 nM | – | – | – | – | – | –
Cn1cnnc1CC1(c2cccc(NC(=O)c3ccnc4ccnn34)c2)COC1 | – | 2.51 | 1.01 | <=0.05 | 1.01 | 1.01 | 0.601
C[C@H](Cc1nncn1C)c1cc(N2Cc3c(cccc3C(F)(F)F)C2=O)nc(C2(C)CC2)c1 | – | 1.01 | 1.01 | 0.051 | 1.01 | 1.01 | <=0.6
CN(c1cc2c(c(C(F)(F)F)c1)CN(c1cccc([C@@](C)(F)C(F)(F)c3nncn3C)c1)C2=O)[C@H]1CNC[C@H]1F | – | 2.51 | 1.01 | 0.151 | 1.31 | 1.01 | 0.801
Cc1cc(C(=O)Nc2cccc(C3(Cc4nncn4C)COC3)c2)n2nc(C(F)(F)F)cc2n1 | – | 1.01 | 1.01 | <=0.05 | 1.01 | 1.01 | 0.601
Cn1cnnc1OC1(c2cccc(N3Cc4c(cc(CN5CCC(F)CC5)cc4C(F)(F)F)C3=O)c2)COC1 | – | 2.51 | 1.01 | <=0.05 | 1.31 | 1.01 | 0.601
Cn1cnnc1CC1(c2cccc(N3Cc4c(ccc(F)c4C4CC4)C3=O)c2)COC1 | – | 1.01 | 1.01 | 0.051 | 1.01 | 1.01 | 0.601
Cc1cc(C(=O)Nc2cccc([C@]3(Cc4nncn4C)CCOC3)c2)nc(C2CC2)n1 (single isomer, unassigned) | – | 2.51 | 1.01 | 0.051 | 1.01 | 1.01 | 0.601
C[C@H](Cc1nncn1C)c1cc(C2CCOCC2)nc(N2Cc3c(cccc3C(F)(F)F)C2=O)c1 | – | 1.01 | 1.01 | <=0.05 | 1.01 | 1.01 | <=0.6
Cc1cc(C(=O)Nc2cccc(-c3c(-c4nncn4C)cnn3C)c2)nc(C2CC2)n1 | – | 1.01 | 1.01 | 0.101 | 1.01 | 1.01 | 0.601
Cn1cnnc1CC1(c2cccc(NC(=O)c3csc(C4CC4)n3)c2)COC1 | – | 1.01 | 1.01 | 0.051 | 1.01 | 1.01 | 0.601
Cn1cnnc1CC1(c2cccc(NC(=O)c3nc(C4CC4)cs3)c2)COC1 | – | 1.01 | <=1 | <=0.05 | 1.01 | 1.01 | <=0.6
